From a melting point compilation (Tetko et al.; mined from patent text by program, amines drawn as free bases though some values may be those of a salt)

| Compound | melting point [°C] |
| --- | --- |
| COc1cc2c(CCNC(C)=O)c[nH]c2cc1F | 158 to 159 |
| NC(N)=Nc1nc(-c2ccc(C(=O)NC(=O)c3cccnc3)o2)cs1 | 217 |
| Cc1ccc(S(=O)(=O)N2CC3=C(CNCC3)C2)cc1 | 201 |
| CC(C)(C)OC(=O)N1C[C@@H](O)[C@H](n2ccnn2)C1 (relative stereo) | 91 to 93 |
| O=C(c1cccs1)c1cnn2c(-c3cccc(Br)c3)ccnc12 | 193 to 195 |
| N#Cc1cc2c(nc1NC1CCCCC1)CCCC2=O | 143 to 145 |
| O=C(O)CCCCCCCOc1ccccc1O | 60 to 64 |
| Cc1ccc(-c2cncc(OC3SCC(O)C(O)C3O)c2)c(Cl)c1 (centres undefined) | 207 |
| CC(=O)NC1Cc2ccc(NC(=O)c3ccccc3Br)cc2C1 (centres undefined) | 216 to 217 |
| CCCn1c(=O)c2[nH]c(-c3ccc(C=C(C(=O)OCC)C(=O)OCC)o3)nc2n(CCC)c1=O | 220 to 222 |
| CCNC(=S)N1CCN(c2cncc(OC)n2)CC1 | 120 to 122 |
| CC(C)(C)CC(C)(C)c1ccc(OCCOC(=O)c2ccc(Nc3nc(Cl)nc(Cl)n3)cc2)cc1 | 249 to 251 |
| O=Cc1ccc(Cc2ccccc2)cc1 | 142 to 144 |
| Cc1ccc(CCC(=O)CC(=O)CCc2ccc(C)cc2)cc1 | 45.6 to 46.8 |
| COC(=O)c1cc2cc(NS(=O)(=O)c3cccc(Cl)c3C)ccc2o1 | 139 to 140 |
| Cc1cccc(C(N)=O)c1NS(=O)(=O)c1nc2scc(C)n2n1 | 217 to 218 |
| CN1CCC(c2ccc(N(C)C)cc2)(C(C)(C)O)CC1 | 142 to 143 |
| N#Cc1nn(-c2c(Cl)cc(C(F)(F)F)cc2Cl)c(N)c1-c1cc(Cl)oc1Cl | 193 to 194 |
| O=C(O)COc1ccc2cc(-c3oc4ccccc4c3-c3ccccc3)ccc2c1-c1ccccc1 | 202 to 203 |
| CCOc1cc([C@@H](CS(C)(=O)=O)N2Cc3cccc(NCC4CC4)c3C2=O)ccc1OC | 147 to 149 |
| NS(=O)(=O)c1ccccc1OCCO | 94 to 99 |
| CCNC(=O)c1cc2ccc(OC)cc2n1CCNC(C)=O | 135 to 136 |
| COc1cc2[nH]c(=O)c(=O)n(C)c2cc1[N+](=O)[O-] | 356 |

| Compound | melting point [°C] |
| --- | --- |
| CNC(C)C/C=C/c1cnc(N)c(C)c1 (centres undefined) | 78 to 81 |
| COC(=O)c1ccc(OC(=O)CCCCCCCCC(=O)Oc2ccc(C(=O)OC)cc2)cc1 | 110 |
| CCC(CO)Nc1nc(NCc2cccc(OC)c2O)c2ncn(C(C)C)c2n1 (racemic) | 120 to 122 |
| O=C(O)c1nccn1C(c1ccccc1)c1ccccc1 | 191 |
| CCOC(=O)C1(Nc2cc(Cl)cc(Cl)c2)CC(C(=O)O)Nc2cc(Cl)cc(Cl)c21 (centres undefined) | 92 to 94 |
| Cc1nc(-c2c(Cl)cc(O)cc2Cl)oc1C | 228 to 229 |
| CC(=O)C1(O)CCC2C3CCC4=CC(=O)CCC4(C)C3C(Cl)CC21C (centres undefined) | 193 to 196 |
| CCC(C)(C)c1ccc(OCCCNC(=O)c2cc(NC(=O)C(Cl)(Cl)Cl)c3ccccc3c2O)c(C(C)(C)CC)c1 | 190 to 192 |
| CC(=O)N(CCCCn1ccnc1)C1=Nc2cccc3cccc1c23 | 127 to 130 |
| CCCCc1[nH]c2ccc([N+](=O)[O-])cc2c1C(=O)c1ccc(OCCCCl)cc1 | 125 |
| CCC(NC(=O)c1c(NC(C)=O)c(NC(C)=O)cc2c1OCCO2)N1CCCCC1 (centres undefined) | > 260 |
| CCOc1nn(Cc2ccc(OCc3nc(-c4ccccc4)oc3C)nc2)cc1CCC(=O)O | 143 to 144 |
| COc1cc2c(c3c1OC(C)(C)C3)C(c1cccc(N3CCNS3)c1)=NC(C)(C)C2 | 145 to 147 |
| CCC(=O)N1C(=O)OC(C)(C)[C@@H]1C | 86 |
| CC(C)(C)OC(=O)Nc1ccc(C#Cc2ccc(F)cc2)cc1NC(=O)CC(=O)c1ccnc(-n2ccnc2)c1 | 169 |
| Cc1ccccc1CC(=NC#N)NC(NC(=O)CCCc1cccs1)C(C)(C)C (centres undefined) | 154 to 155 |
| CSc1ccc(C(=O)c2cc(C)cc(CC(N)=O)c2N)cc1 | 188 to 190 |
| COc1nc2c(c(OC)n1)C(c1ccc(O)c(OC)c1)C1=C(COC1=O)N2 (centres undefined) | 294 to 296 |
| COc1ncnc(-c2cc([N+](=O)[O-])c(C#N)cc2F)c1C | 129 to 131 |
| COC(=O)c1ccn2ncnc2c1 | 125 to 126 |
| O=C(O)CCC(=O)OCc1ccccc1[N+](=O)[O-] | 63 to 65 |
| Cc1nc(-c2ccc(C(F)(F)F)cc2)sc1CN(C)c1ccc(OCC(=O)O)c(I)c1 | 172 to 173 |

Results, then the compound that gave them:

| melting point [°C] | Compound |
| --- | --- |
| 295 to 296 | CC(=O)Nc1ccc2c(c1)-n1cc(C(=O)O)nc1CO2 |
| 144 to 147 | O=C(O)c1ccc2[nH]cc(CCCCN3CCCC(Cc4ccccc4)C3)c2c1 (centres undefined) |
| 215 to 217 | COC(=O)c1nc(-c2ccc(Cl)c(OC)c2F)nc(O)c1Cl |
| 110 to 112 | CC(C)c1nn(-c2ccccc2)c(-c2ccc(F)cc2)c1C=O |
| 210 to 211 | N#CC(NC(=O)c1cccn2cc(-c3ccccc3)nc12)c1cccc(Cl)c1 (centres undefined) |
| 148 to 150 | O=C1CC[C@@H]([N+](=O)[O-])[C@H](c2ccc(Cl)cc2)N1 (relative stereo) |
| 191 | COc1cccc2c(=O)nc(-c3ccccn3)sc12 |
| 215 to 217 | COCc1nc2c(N)nc3cc(CCC(=O)N4CCOCC4)ccc3c2n1CC(C)(C)O |
| 197 | OC[C@H]1OC[C@@H](n2cnc3cc(Cl)c(Cl)cc32)C[C@@H]1O |
| 119 | CC(=O)CCCN1CCC(NC(=O)c2cc(Cl)c(N)c3c2OC(C)(C)C3)CC1 |
| 169 to 171 | CC(=C(C#N)C#N)c1ccc2cc(N3CCN(C(=O)OC(C)(C)C)CC3)ccc2c1 |
| 260 | O=C(O)COc1cc(C(=O)O)nc2ccc(Cl)cc12 |
| 54 | CCCc1nnc(-c2ccc(OC)cc2)s1 |
| 63 to 64 | CCNC1=NN(c2ccc(Cl)cc2)CC1C (centres undefined) |
| 373 | O=C1c2nccnc2C(=O)N1c1ccc2ccc(O)nc2n1 |
| 115 to 117 | Cn1ncnc1COc1nc2c(cc1C(C)(C)C)nnn2-c1ccccc1F |
| 130 to 131 | COc1ccc(C(=NOC(C)=O)c2cc(F)ccc2F)c(O)c1Cl |
| 200 | O=c1[nH]c2ccc(CCN3CCN(c4nncc5ccccc45)CC3)cc2o1 |
| 166 | Cn1cc(-c2ccccc2)c(=O)c(-c2ccc(F)cc2)c1 |
| 210 to 212 | O=C(O)c1cc(O)cc2ccccc12 |
| 163 to 165 | CC(C)c1ccc2c(c1)CCN2C(=O)Nc1cccnc1 |
| 95 to 96 | CCOc1ccc(C=O)c(Oc2ccc(Cl)cc2Cl)n1 |
| 54 to 64 | COc1ccc2c(c1)C(=NN1CCOC1=O)CCO2 |
| 62 to 64 | N#Cc1ccc(C(CC2CCCC2)C(=O)Nc2nccs2)cc1 (centres undefined) |
| 91 to 93 | C=CCN1CCn2c1nc1ccc(Cl)cc1c2=O |
| 210 | CNC(=O)n1sc(-c2ccccc2)nc1=O |
| 174 | Cc1cccc(N2CCN(c3ccc(S)nn3)CC2)c1 |
| 62 | C=CCOc1cc(OCc2ccccc2)ccc1O |
| 40 | COC(=O)/C=C(\Cl)c1ccc(Cl)cc1 |
